{"source": "patent US20220256902A1", "about": "“NOVEL STEVIOL GLYCOSIDE, METHOD FOR PRODUCING SAME, AND SWEETENER COMPOSITION CONTAINING SAME” (SUNTORY HOLDINGS LIMITED, priority 2019, published 2022)", "key": {"[1]": {"test": "Evaluation of sweetness level: choosing the sugar-added sample of equivalent sweetness intensity", "type": "in vivo", "experimental": "In order to evaluate the sweetness levels of Novel steviol glycosides A and B, samples were prepared by adding sugar to pure water to give Brix of 3.0 to 5.0 in 0.5 increments. Compounds 15 and 17 obtained by the chemical syntheses were used as Novel steviol glycosides A and B, respectively, where 48 mg of each sample was dissolved in 400 mL of pure water to be tested. In addition, samples were also prepared for comparison by dissolving 48 mg of each of Reb.A, Reb.D and Reb.M in 400 mL of pure water."}, "[2]": {"test": "Sensory evaluation of taste quality of beverage samples (sweetness on-set, lingering sweet aftertaste, bitterness, lingering bitter aftertaste)", "type": "in vivo", "source_text": "In order to evaluate the taste quality of various steviol glycosides, Reb.A, Reb.D, Reb.M, sugar and Novel steviol glycoside A (Compound 15) were each added to pure water to prepare beverage samples. All of the beverage samples were adjusted to have final sweetness level (Brix) of 5 in terms of sugar (sucrose), and thus the sweetness levels of Reb.A, Reb.D, Reb.M and Novel steviol glycoside A (Compound 15) were 312, 317, 341 and 354, respectively.\n(§1) The resulting beverage samples were subjected to sensory evaluation for rating the attributes, which were sweetness on-set, lingering sweet aftertaste, bitterness and lingering bitter aftertaste. Panelists who had been trained about sensory attributes of sweeteners (7 members) evaluated based on the following evaluation criteria. For each evaluation item, the steviol glycosides were scored in 0.5 increments provided that the score of sugar was 3. […]\nas §1"}, "[3]": {"settings": "evaluation with Novel steviol glycoside A (Compound 15), restated averages of Table 2"}, "[4]": {"settings": "evaluation with Novel steviol glycoside B (Compound 17), restated averages of Table 3"}}, "data": [{"smiles": "C=C1CC23CCC4C(C)(C(=O)OC5OC(CO)C(O)C(O)C5OC5OCC(O)C(O)C5O)CCCC4(C)C2CCC1(OC1OC(CO)C(O)C(OC2OC(CO)C(O)C(O)C2O)C1OC1OC(CO)C(O)C(O)C1O)C3", "note": "(stereo not shown) [Novel steviol glycoside A]", "values": [{"measurement": "sweetness level, times higher in average than that of sugar", "setting": "[1]; average of panelists, 48 mg in 400 mL pure water", "value": "about 354 times"}, {"measurement": "sweetness levels taken for adjusting the beverage samples to Brix 5 in terms of sugar", "setting": "[1]; [3]", "value": 354}, {"measurement": "sweetness (sensory evaluation, in words)", "setting": "[2]; beverage samples in pure water, Brix 5 in terms of sugar, vs Reb.A, Reb.D, Reb.M, FIG. 14", "value": "less sweetness"}, {"measurement": "lingering sweet and bitter aftertastes", "setting": "[2]; general statement in the description", "value": "less lingering sweet and bitter aftertastes"}]}, {"smiles": "C=C1C[C@@]23CC[C@H]4[C@@](C)(CCC[C@@]4(C)C(=O)O[C@@H]4O[C@H](CO)[C@@H](O)[C@H](O)[C@H]4O)[C@@H]2CC[C@]1(O[C@@H]1O[C@H](CO)[C@@H](O)[C@H](O[C@@H]2O[C@H](CO)[C@@H](O)[C@H](O)[C@H]2O)[C@H]1O[C@@H]1O[C@H](CO)[C@@H](O)[C@H](O)[C@H]1O)C3", "note": "[Reb A, rebaudioside A]", "values": [{"measurement": "sweetness levels taken for adjusting the beverage samples to Brix 5 in terms of sugar", "setting": "[1]; [3]", "value": 312}, {"measurement": "sweetness levels taken for adjusting the beverage samples to Brix 5 in terms of sugar", "setting": "[1]; [4]", "value": 288}]}, {"smiles": "C=C1C[C@@]23CC[C@H]4[C@@](C)(CCC[C@@]4(C)C(=O)O[C@@H]4O[C@H](CO)[C@@H](O)[C@H](O)[C@H]4O[C@@H]4O[C@H](CO)[C@@H](O)[C@H](O)[C@H]4O)[C@@H]2CC[C@]1(O[C@@H]1O[C@H](CO)[C@@H](O)[C@H](O[C@@H]2O[C@H](CO)[C@@H](O)[C@H](O)[C@H]2O)[C@H]1O[C@@H]1O[C@H](CO)[C@@H](O)[C@H](O)[C@H]1O)C3", "note": "[Reb D, rebaudioside D]", "values": [{"measurement": "sweetness levels taken for adjusting the beverage samples to Brix 5 in terms of sugar", "setting": "[1]; [3]", "value": 317}, {"measurement": "sweetness levels taken for adjusting the beverage samples to Brix 5 in terms of sugar", "setting": "[1]; [4]", "value": 310}]}, {"smiles": "C=C1C[C@@]23CC[C@H]4[C@@](C)(CCC[C@@]4(C)C(=O)O[C@@H]4O[C@H](CO)[C@@H](O)[C@H](O[C@@H]5O[C@H](CO)[C@@H](O)[C@H](O)[C@H]5O)[C@H]4O[C@@H]4O[C@H](CO)[C@@H](O)[C@H](O)[C@H]4O)[C@@H]2CC[C@]1(O[C@@H]1O[C@H](CO)[C@@H](O)[C@H](O[C@@H]2O[C@H](CO)[C@@H](O)[C@H](O)[C@H]2O)[C@H]1O[C@@H]1O[C@H](CO)[C@@H](O)[C@H](O)[C@H]1O)C3", "note": "[Reb M, rebaudioside M]", "values": [{"measurement": "sweetness levels taken for adjusting the beverage samples to Brix 5 in terms of sugar", "setting": "[1]; [3]", "value": 341}, {"measurement": "sweetness levels taken for adjusting the beverage samples to Brix 5 in terms of sugar", "setting": "[1]; [4]", "value": 324}]}]}
